Assay results from publication PMC10454409, “Hybrids of Sterically Hindered Phenols and Diaryl Ureas: Synthesis, Switch from Antioxidant Activity to ROS Generation and Induction of Apoptosis” (International Journal of Molecular Sciences, 2023).
Like-named read-outs stand apart in the source and are kept apart here.

Assays:
[1] = tested on: SH-SY5Y cells (neuroblastoma); assay: MTT cytotoxicity test, SH-SY5Y; type: cell-based; details: for IC50: Homo sapiens, SH-SY5Y, MTT test, 24 h incubation per text, 48 h per method
From the text: (§1) For the experiments, we used tumor cell cultures M-HeLa clone 11 (epithelioid carcinoma of the cervix, subline HeLa., clone M-HeLa), HuTu 80 (human duodenal adenocarcinoma) and MCF7 (human breast adenocarcinoma (pleural fluid)) from the collection of the Institute of Cytology, Russian Academy of Sciences (St. Petersburg); human liver cells (Chang liver) from the collection of the Research Institute of Virology at the Russian Academy of Medical Sciences (Moscow); and SH-SY5Y (neuroblastoma)from the Laboratory of Tumor Cell Genetics at the Scientific Research Institute of Carcinogenesis N.N. Blokhin National Medical Research Center of Oncology.
(§2) The cytotoxic effect on cells was determined using the colorimetric method of cell proliferation—the MTT test. NADP-H-dependent cellular oxidoreductase enzymes can, under certain conditions, reflect the number of viable cells. These enzymes are able to reduce the tetrazolium dye (MTT)-3-(4,5-dimethylthiazol-2-yl)-2,5-diphenyl-tetrazolium bromide to insoluble blue-violet formazan, which crystallizes inside the cell. The amount of formazan formed is proportional to the number of cells with active metabolism.
(§3) Cells were seeded on a 96-well Nunc plate at a concentration of 5 × 10^3 cells per well in a volume of 100 μL of medium and cultured in a CO2 incubator at 37 °C until a monolayer was formed. […] After 48 h, the nutrient medium was removed from the plates and 100 µL of the nutrient medium without serum with MTT at a concentration of 0.5 mg/mL was added and incubated for 4 h at 37 °C. Formazan crystals were […] 100 µL of DMSO in each well. Optical density was recorded at 540 nm on an in vitro logic microplate reader (Russia). The experiments for all compounds were repeated in triplicate.
(§4) IC50 values were estimated using the Quest Graph IC50 Calculator (AAT Bioquest, Inc., Sunnyvale, CA, USA) (Version 2022) (accessed on 25 June 2022).

[2] = tested on: M-HeLa cells (human cervix epithelioid carcinoma); assay: MTT cytotoxicity test, M-HeLa; type: cell-based; details: for IC50: Homo sapiens, M-HeLa, MTT test, 24 h incubation per text, 48 h per method
From the text: as §1, §2, §3, §4

[3] = tested on: Chang liver cells (human liver cells, normal cell line); assay: MTT cytotoxicity test, Chang liver normal cells; type: cell-based; details: 48 h incubation
From the text: as §1, §2, §3, §4

[4] = tested on: MCF-7 cells (human breast adenocarcinoma); assay: MTT cytotoxicity test, MCF-7; type: cell-based; details: for IC50: 24 h incubation per text, 48 h per method; for SI, selectivity index relative to Chang liver, MCF-7: MCF-7 vs Chang liver
Experimental: as §2
Formazan crystals were added to 100 µL of DMSO in each well. Optical density was recorded at 540 nm on an in vitro logic microplate reader (Russia). The experiments for all compounds were repeated in triplicate.

[5] = tested on: HuTu 80 cells (human duodenal adenocarcinoma); assay: MTT cytotoxicity test, HuTu 80; type: cell-based; details: Homo sapiens
From the text: as §1, §2, §3, §4

[6] = tested on: isolated rat liver mitochondria; assay: Membrane potential of isolated mitochondria (Safranin A); type: biochemical
Experimental: The membrane potential of rat […] mitochondria was measured with a Victor 3 plate analyzer (Perkin Elmer, Hamburg, Germany) using the potential-dependent indicator Safranin A [57]. The mitochondrial preparation was diluted in a buffer containing mannitol (225 mM) (Dia-M, Moscow, Russia), sucrose (75 mM) (Sigma Aldrich, Saint Louis, MO, USA), HEPES (10 mM) (Gibco, Scotland, UK), EGTA (20 µM) (Dia-M, Moscow, Russia) and KH2PO4 (1 mM) at pH = 7.4 at a ratio of 0.5 mg of protein to 1 mL of medium. Safranin A (5 µM) was added to the suspension immediately before the start of the measurement. The organelles were then energized by potassium succinate (5 mM) in the presence of rotenone (1 µM). Mitochondrial pore opening was induced by the addition of CaCl2 (25 µM).
Figure 8 Effect of the synthesized compounds on the membrane potential of rat liver mitochondria. (a) Kinetic lines of transmembrane potential changes at λex = 458 nm and λem = 590 nm. The concentration of the test substances was 100 µM. (b) Calculated parameters of % depolarization relative to control samples. Statistical significance was assessed using one-way ANOVA and Dunnett’s multiple comparison tests, where **** p < 0.0001 vs. control. (c) Concentration dependence of the effects of 11b and 17b on mitochondrial membrane potential. The concentration of the test substances was from 20 to 200 µM. Concentration of ions; Ca^2+—25 µM. Mitochondria were energized by potassium succinate and rotenone. Data are presented as mean±error of the mean (n = 3).

[7] = tested on: SH-SY5Y neuroblastoma cells; assay: Glycolysis stress test (Seahorse XF96e, ECAR); type: cell-based; details: compound 100 µM; for Glycolysis: rate of extracellular acidification after saturating glucose: glucose 10 mM; for Glycolytic capacity: oligomycin 1 µM
Experimental: We studied the ability of compounds to inhibit aerobic glycolysis using the Agilent Seahorse XF96e Analyzer (Seahorse Bioscience, North Billerica, MA, USA) assay of cellular metabolism on the level of proton production in samples examined on the SH-SY5Y neuroblastoma cell line using glycolysis stress tests. The extracellular acidification rate of the medium was measured in real time, which allowed us to assess the intensity of glycolysis in the cells by recording the main parameters of glycolytic function: basal glycolysis, glycolytic capacity and glycolytic reserve. Glycolytic capacity describes the maximum amount of glycolysis/glucose breakdown the cells can perform acutely, whereas glycolytic reserve is defined as the difference between the basal and maximal glycolytic capacity.
The ability of synthesized compounds to modulate […] glycolysis was studied using the Agilent Seahorse XF96e Analyzer (Seahorse Bioscience, Billerica, MA, USA) on the neuroblastoma SH-SY5Y cell line (40,000 cells per well) as described earlier.
Glycolysis was measured by subtracting the maximum rate of extracellular acidification of the medium before glucose injection from the maximum rate before oligomycin injection. Glycolytic capacity was measured by subtracting the maximum velocity value before glucose injection from the maximum velocity value after oligomycin injection. Glycolytic reserve was defined as the difference between glycolytic capacity and glycolysis.
Figure 6 Effect of synthesized compounds on the glycolytic profile of (a–c) SH-SY5Y tumor cells and (d) calculated parameters of glycolytic function. […] The concentration of compounds was 100 µM, glucose—10 mM, oligomycin—1 µM и 2-fluoro-2-deoxy-D-glucose—25 mM. Data are presented as mean±error of the mean (n = 3). Statistical significance was assessed using one-way ANOVA and Dunnett’s multiple comparison tests, where **** p < 0.0001, *** p < 0.001, ** p < 0.01 and * p < 0.05 vs. control.

HuTu 80 cells = assay: Intracellular ROS level, CellROX Deep Red flow cytometry; type: cell-based, human; details: 48 h incubation, maximum concentration (IC50)
[8] = HuTu80, read-out: IC50, HuTu 80
[9] = HuTu80, MTT test, 24 h incubation per text, 48 h per method, read-out: IC50, HuTu 80

Row | SMILES | IC50 [1] [µM] | IC50 [2] [µM] | IC50 [3] [µM] | IC50 ([4]; Homo sapiens, MCF7, MTT test) [µM] | IC50 [5, 8] [µM] | IC50 [5, 9] [µM] | Depolarization of mitochondrial membrane ([6]; isolated mitochondria, compound 100 μM) [%] | Depolarization relative to control (class in Figure 8b) ([6]; isolated rat liver mitochondria, compound 100 µM) | Glycolytic reserve [7] | Glycolysis: rate of extracellular acidification after saturating glucose [7] | Glycolytic capacity [7] | Intracellular ROS level (HuTu 80 cells) [%] | IC50 ([4]; MTT test) [µM] | SI, selectivity index relative to Chang liver, SH-SY5Y ([1]; SH-SY5Y vs Chang liver) | SI, selectivity index relative to Chang liver, MCF-7 [4] | SI, selectivity index relative to Chang liver, M-HeLa ([2]; M-HeLa vs Chang liver)
1 | COP(=O)(OC)C(c1cc(C(C)(C)C)c(O)c(C(C)(C)C)c1)c1ccc(NC(=O)Nc2ccc([N+](=O)[O-])cc2)cc1NC(=O)Nc1ccc([N+](=O)[O-])cc1 (centres unmarked) [17a] | > 100 | 60 ± 4.7 | 86 ± 6.6 | 73.6 ± 5.8 | 41 ± 3.1 |  |  |  |  |  |  |  |  |  |  | 
2 | CCOP(=O)(OCC)C(c1cc(C(C)(C)C)c(O)c(C(C)(C)C)c1)c1ccc(NC(=O)Nc2ccc(OC)cc2)nc1NC(=O)Nc1ccc(OC)cc1 (centres unmarked) [10b] | > 100 | > 100 | 81.2 ± 6.4 | 82.1 ± 6.5 | 45 ± 3.6 |  |  |  |  |  |  |  |  |  |  | 
3 | Cc1ccc(NC(=O)Nc2ccc(C(c3cc(C(C)(C)C)c(O)c(C(C)(C)C)c3)P(=O)(Oc3ccccc3)Oc3ccccc3)c(NC(=O)Nc3ccc(C)cc3)n2)cc1 (centres unmarked) [9d] | > 100 | 78.9 ± 6.2 | > 100 | 76.6 ± 6.2 | 50 ± 4 |  |  |  |  |  |  |  |  |  |  | 
4 | CCOP(=O)(OCC)C(c1cc(C(C)(C)C)c(O)c(C(C)(C)C)c1)c1ccc(NC(=O)Nc2cccc(C)c2)nc1NC(=O)Nc1cccc(C)c1 (centres unmarked) [8b] | 41 ± 0.3 | 62 ± 2.2 | 13 ± 1.2 | 35.4 ± 2.8 | < 15 | 8 ± 0.6 |  |  |  |  |  |  |  |  |  | 
5 | COP(=O)(OC)C(c1cc(C(C)(C)C)c(O)c(C(C)(C)C)c1)c1ccc(N)nc1N (centres unmarked) [3a] | > 100 | 16.1 ± 1.3 | > 100 | 31 ± 2.6 | > 100 |  |  |  |  |  |  |  |  |  |  | 
6 | CCOP(=O)(OCC)C(c1cc(C(C)(C)C)c(O)c(C(C)(C)C)c1)c1ccc(NC(=O)Nc2ccc(OC)cc2)cc1NC(=O)Nc1ccc(OC)cc1 (centres unmarked) [15b] | > 100 | > 100 | 96 ± 7.6 | 96.3 ± 7.6 | 58.7 ± 4.6 |  |  |  |  |  |  |  |  |  |  | 
7 | CCOP(=O)(OCC)C(c1cc(C(C)(C)C)c(O)c(C(C)(C)C)c1)c1ccc(NC(=O)Nc2ccc(Cl)cc2)nc1NC(=O)Nc1ccc(Cl)cc1 (centres unmarked) [11b] | 46.4 ± 0.92 | 70 ± 5.5 | 99.4 ± 7.8 | 63.1 ± 4.9 | 25.7 |  | 50 | High Depolarization | ability to decrease glycolytic reserves | decrease in the rate of extracellular acidification | decrease in glycolytic capacity | 670.7 ± 7.2 |  |  |  | 
8 | CCOP(=O)(OCC)C(c1cc(C(C)(C)C)c(O)c(C(C)(C)C)c1)c1ccc(NC(=O)Nc2cccc(C)c2)cc1NC(=O)Nc1cccc(C)c1 (centres unmarked) [13b] | 86.3 ± 4 | 96.3 ± 7.5 | 68.2 ± 5.4 | 57.7 ± 4.6 | 40.1 ± 3.1 |  |  |  |  |  |  |  |  |  |  | 
9 | CCOP(=O)(OCC)C(c1cc(C(C)(C)C)c(O)c(C(C)(C)C)c1)c1ccc(NC(=O)Nc2ccc(C)cc2)cc1NC(=O)Nc1ccc(C)cc1 (centres unmarked) [14b] | 27 ± 1.1 | 14.1 ± 1.2 | 21 ± 1.8 | < 15 | 15.7 ± 1.3 |  |  |  |  | decrease in the rate of extracellular acidification | decrease in glycolytic capacity |  | 13.7 ± 1.2 |  |  | 
10 | CC(C)OP(=O)(OC(C)C)C(c1cc(C(C)(C)C)c(O)c(C(C)(C)C)c1)c1ccc(N)nc1N (centres unmarked) [3c] | 30.4 ± 0.7 | 38 ± 2.8 | 100 ± 2.7 | 21.8 ± 1.7 |  | > 100 |  |  |  |  |  |  |  | ~3 | ~5 | 
11 | CCOP(=O)(OCC)C(c1cc(C(C)(C)C)c(O)c(C(C)(C)C)c1)c1ccc(NC(=O)Nc2ccc(Cl)cc2)cc1NC(=O)Nc1ccc(Cl)cc1 (centres unmarked) [16b] | > 100 | 100 ± 8.6 | > 100 | > 100 | 61 ± 4.8 |  |  |  |  |  |  |  |  |  |  | 
12 | CCOP(=O)(OCC)C(c1cc(C(C)(C)C)c(O)c(C(C)(C)C)c1)c1ccc(N)nc1N (centres unmarked) [3b] | 77 ± 1.9 | 17.1 ± 1.3 | > 100 | 34.2 ± 3 | 86.6 ± 6.8 |  |  |  |  |  |  |  |  |  |  | 
13 | CNC(=O)c1cc(Oc2ccc(NC(=O)Nc3ccc(Cl)c(C(F)(F)F)c3)cc2)ccn1 [SF, sorafenib, reference compound] |  | 25 ± 1.9 | 21.7 ± 1.7 |  |  | 6.2 ± 0.5 |  |  |  |  |  |  |  |  |  | 
14 | CC(C)(C)c1cc(C(c2ccc(N)nc2N)P(=O)(Oc2ccccc2)Oc2ccccc2)cc(C(C)(C)C)c1O (centres unmarked) [3d] | 18.8 ± 0.2 | 7.4 ± 0.7 | 52.3 ± 3.5 | 16.4 ± 1.7 | 63.2 ± 5.6 |  |  |  |  |  |  |  |  |  | ~3 | ~7
15 | CCOP(=O)(OCC)C(c1cc(C(C)(C)C)c(O)c(C(C)(C)C)c1)c1ccc(NC(=O)Nc2ccccc2)nc1NC(=O)Nc1ccccc1 (centres unmarked) [5b] | 17.9 ± 1.9 | 62.5 ± 5.2 | 31.4 ± 2.4 | 36.3 ± 2.8 | 20 ± 1.7 |  |  |  |  |  |  |  |  |  |  | 
16 | COP(=O)(OC)C(c1cc(C(C)(C)C)c(O)c(C(C)(C)C)c1)c1ccc(NC(=O)Nc2cccc(C)c2)cc1NC(=O)Nc1cccc(C)c1 (centres unmarked) [13a] | > 100 | 75 ± 6 | 92 ± 7.2 | 77.4 ± 6.3 | 75.1 ± 6.1 |  |  |  |  |  |  |  |  |  |  | 
